# Paper PMC3608651, “A Broad Profile of Co-Dominant Epitopes Shapes the Peripheral Mycobacterium tuberculosis Specific CD8+ T-Cell Immune Response in South African Patients with Active Tuberculosis” (PLoS ONE, 2013)
# Legend:
# Assay type in all cases: binding
# HLA-B*58:01 = HLA-B*58:01 (Homo sapiens, UniProt P01889, A329T/C349S/D201E/D98Y/E176V/E187L/E204Q/E69T/G107R/I218V/I90N/K202T/L105A/L119I/N104I/N87E/Q89R/Q94S/R106L/R155S/R180L/R86G/S101N/S121R/S35A/S48A/T118I/V127L/V306I/V36M/Y140S/Y91M); conditions: percent relative the binding of positive control peptide […]; duplicated experiments; positive binder >40%
# HLA-A*68:01 = HLA-A*68:01 (Homo sapiens, UniProt P04439, A269V/D185E/E176V/E277Q/E87N/F33Y/G231S/I121M/I166T/I218V/L180W/L300P/L318F/N151K/P208A/P217A/Q86R/R169H/T345S); conditions: percent relative the binding of positive control peptide […]; duplicated experiments; positive binder >40%
# HLA-A*30:02 = HLA-A*30:02 (Homo sapiens, UniProt P04439, D101N/D140H/D185E/E176R/F33S/G80R/H175R/K168Q/Q94H/R138E/R41S/V100E); conditions: percent relative the binding of positive control peptide […]; duplicated experiments; positive binder >40%
# HLA-A*30:01 = HLA-A*30:01 (Homo sapiens, UniProt P04439, D140H/D185E/E176W/F33S/G80R/H175R/K168Q/R138E/R41S); conditions: percent relative the binding of positive control peptide […]; duplicated experiments; positive binder >40%
# HLA-A*24:02 = HLA-A*24:02 (Homo sapiens, UniProt P04439, D101N/D140Y/D185E/E176V/E190D/F33S/G103R/G107R/I119L/I121M/I306V/K335N/L105A/L180Q/L300P/N151K/N90K/Q86E/Q94H/R106L/R138H/R89G/T104I/T345S/V100E/W191G/Y123F); conditions: percent relative the binding of positive control peptide […]; duplicated experiments; positive binder >40%
# HLA-C*07:01 = HLA-C*07:01 (Homo sapiens, UniProt P10321, K90N/S123Y); conditions: percent relative the binding of positive control peptide […]; duplicated experiments; positive binder >40%
# HLA-A*02:01 = HLA-A*02:01 (Homo sapiens, UniProt P04439, D140Y/D185E/D98H/E176V/E277Q/G131W/G231S/I119V/I121R/I166T/I218V/L300P/L318F/N151K/N90K/P208A/P217A/Q86G/Q94H/R138H/R169H/T345S); conditions: percent relative the binding of positive control peptide […]; plate-bound monomer 0.5 µg/ml; duplicated experiments; positive binder >40%
# HLA-B*07:02 = HLA-B*07:02 (Homo sapiens, UniProt P01889); conditions: percent relative the binding of positive control peptide […]; duplicated experiments; positive binder >40%
substance,measurement,setting,value
PAFEW YYQS,Bind B*58:01,HLA-B*58:01,0%
same,Bind A*68:01,HLA-A*68:01,6%
same,Bind A*30:02,HLA-A*30:02,0%
same,Bind A*30:01,HLA-A*30:01,0%
same,Bind A*24:02,HLA-A*24:02,24%
same,Bind C*07:01,HLA-C*07:01,2%
same,Bind A*02:01,HLA-A*02:01,76%
same,Bind B*07:02,HLA-B*07:02,15%
VKPTGSAAI,Bind B*58:01,HLA-B*58:01,0%
same,Bind A*68:01,HLA-A*68:01,0%
same,Bind A*30:02,HLA-A*30:02,0%
same,Bind A*30:01,HLA-A*30:01,0%
same,Bind A*24:02,HLA-A*24:02,0%
same,Bind C*07:01,HLA-C*07:01,0%
same,Bind A*02:01,HLA-A*02:01,0%
same,Bind B*07:02,HLA-B*07:02,43%
QSGLSIVMP,Bind B*58:01,HLA-B*58:01,0%
same,Bind A*68:01,HLA-A*68:01,0%
same,Bind A*30:02,HLA-A*30:02,0%
same,Bind A*30:01,HLA-A*30:01,34%
same,Bind A*24:02,HLA-A*24:02,0%
same,Bind C*07:01,HLA-C*07:01,43%
same,Bind A*02:01,HLA-A*02:01,30%
same,Bind B*07:02,HLA-B*07:02,0%
SGLSIVMPV,Bind B*58:01,HLA-B*58:01,0%
same,Bind A*68:01,HLA-A*68:01,0%
same,Bind A*30:02,HLA-A*30:02,38%
same,Bind A*30:01,HLA-A*30:01,0%
same,Bind A*24:02,HLA-A*24:02,0%
same,Bind C*07:01,HLA-C*07:01,0%
same,Bind A*02:01,HLA-A*02:01,95%
same,Bind B*07:02,HLA-B*07:02,0%
IVMPVGGQS,Bind B*58:01,HLA-B*58:01,0%
same,Bind A*68:01,HLA-A*68:01,0%
same,Bind A*30:02,HLA-A*30:02,56%
same,Bind A*30:01,HLA-A*30:01,0%
same,Bind A*24:02,HLA-A*24:02,0%
same,Bind C*07:01,HLA-C*07:01,0%
same,Bind A*02:01,HLA-A*02:01,44%
same,Bind B*07:02,HLA-B*07:02,51%
NNTRLW VYC,Bind B*58:01,HLA-B*58:01,11%
same,Bind A*68:01,HLA-A*68:01,4%
same,Bind A*30:02,HLA-A*30:02,89%
same,Bind A*30:01,HLA-A*30:01,19%
same,Bind A*24:02,HLA-A*24:02,3%
same,Bind C*07:01,HLA-C*07:01,20%
same,Bind A*02:01,HLA-A*02:01,0%
same,Bind B*07:02,HLA-B*07:02,4%
CGNGTPNEL,Bind B*58:01,HLA-B*58:01,0%
same,Bind A*68:01,HLA-A*68:01,0%
same,Bind A*30:02,HLA-A*30:02,41%
same,Bind A*30:01,HLA-A*30:01,0%
same,Bind A*24:02,HLA-A*24:02,2%
same,Bind C*07:01,HLA-C*07:01,28%
same,Bind A*02:01,HLA-A*02:01,20%
same,Bind B*07:02,HLA-B*07:02,0%
AQLNAMKGD,Bind B*58:01,HLA-B*58:01,0%
same,Bind A*68:01,HLA-A*68:01,0%
same,Bind A*30:02,HLA-A*30:02,56%
same,Bind A*30:01,HLA-A*30:01,0%
same,Bind A*24:02,HLA-A*24:02,29%
same,Bind C*07:01,HLA-C*07:01,3%
same,Bind A*02:01,HLA-A*02:01,10%
same,Bind B*07:02,HLA-B*07:02,0%
SAAIGLSMA,Bind B*58:01,HLA-B*58:01,5%
same,Bind A*68:01,HLA-A*68:01,0%
same,Bind A*30:02,HLA-A*30:02,0%
same,Bind A*30:01,HLA-A*30:01,0%
same,Bind A*24:02,HLA-A*24:02,0%
same,Bind C*07:01,HLA-C*07:01,0%
same,Bind A*02:01,HLA-A*02:01,67%
same,Bind B*07:02,HLA-B*07:02,31%
GKAGCQTYK,Bind B*58:01,HLA-B*58:01,22%
same,Bind A*68:01,HLA-A*68:01,72%
same,Bind A*30:02,HLA-A*30:02,58%
same,Bind A*30:01,HLA-A*30:01,34%
same,Bind A*24:02,HLA-A*24:02,19%
same,Bind C*07:01,HLA-C*07:01,0%
same,Bind A*02:01,HLA-A*02:01,33%
same,Bind B*07:02,HLA-B*07:02,9%
DPSQGMGPS,Bind B*58:01,HLA-B*58:01,12%
same,Bind A*68:01,HLA-A*68:01,0%
same,Bind A*30:02,HLA-A*30:02,29%
same,Bind A*30:01,HLA-A*30:01,21%
same,Bind A*24:02,HLA-A*24:02,58%
same,Bind C*07:01,HLA-C*07:01,19%
same,Bind A*02:01,HLA-A*02:01,30%
same,Bind B*07:02,HLA-B*07:02,0%
PQWLSANRA,Bind B*58:01,HLA-B*58:01,0%
same,Bind A*68:01,HLA-A*68:01,13%
same,Bind A*30:02,HLA-A*30:02,13%
same,Bind A*30:01,HLA-A*30:01,36%
same,Bind A*24:02,HLA-A*24:02,75%
same,Bind C*07:01,HLA-C*07:01,2%
same,Bind A*02:01,HLA-A*02:01,52%
same,Bind B*07:02,HLA-B*07:02,14%
YNAAGGHNA,Bind B*58:01,HLA-B*58:01,46%
same,Bind A*68:01,HLA-A*68:01,32%
same,Bind A*30:02,HLA-A*30:02,53%
same,Bind A*30:01,HLA-A*30:01,10%
same,Bind A*24:02,HLA-A*24:02,0%
same,Bind C*07:01,HLA-C*07:01,12%
same,Bind A*02:01,HLA-A*02:01,16%
same,Bind B*07:02,HLA-B*07:02,0%
SPACGKAGC,Bind B*58:01,HLA-B*58:01,0%
same,Bind A*68:01,HLA-A*68:01,0%
same,Bind A*30:02,HLA-A*30:02,0%
same,Bind A*30:01,HLA-A*30:01,0%
same,Bind A*24:02,HLA-A*24:02,0%
same,Bind C*07:01,HLA-C*07:01,0%
same,Bind A*02:01,HLA-A*02:01,16%
same,Bind B*07:02,HLA-B*07:02,77%
QQFIYAGSL,Bind B*58:01,HLA-B*58:01,8%
same,Bind A*68:01,HLA-A*68:01,0%
same,Bind A*30:02,HLA-A*30:02,80%
same,Bind A*30:01,HLA-A*30:01,0%
same,Bind A*24:02,HLA-A*24:02,0%
same,Bind C*07:01,HLA-C*07:01,27%
same,Bind A*02:01,HLA-A*02:01,42%
same,Bind B*07:02,HLA-B*07:02,0%
GPSLIGLAM,Bind B*58:01,HLA-B*58:01,18%
same,Bind A*68:01,HLA-A*68:01,6%
same,Bind A*30:02,HLA-A*30:02,0%
same,Bind A*30:01,HLA-A*30:01,0%
same,Bind A*24:02,HLA-A*24:02,0%
same,Bind C*07:01,HLA-C*07:01,0%
same,Bind A*02:01,HLA-A*02:01,11%
same,Bind B*07:02,HLA-B*07:02,85%
KGDLQSSLG,Bind B*58:01,HLA-B*58:01,0%
same,Bind A*68:01,HLA-A*68:01,40%
same,Bind A*30:02,HLA-A*30:02,13%
same,Bind A*30:01,HLA-A*30:01,20%
same,Bind A*24:02,HLA-A*24:02,4%
same,Bind C*07:01,HLA-C*07:01,25%
same,Bind A*02:01,HLA-A*02:01,10%
same,Bind B*07:02,HLA-B*07:02,6%
NFPPNGTHS,Bind B*58:01,HLA-B*58:01,26%
same,Bind A*68:01,HLA-A*68:01,0%
same,Bind A*30:02,HLA-A*30:02,43%
same,Bind A*30:01,HLA-A*30:01,11%
same,Bind A*24:02,HLA-A*24:02,0%
same,Bind C*07:01,HLA-C*07:01,0%
same,Bind A*02:01,HLA-A*02:01,14%
same,Bind B*07:02,HLA-B*07:02,0%
ILAAYHPQQ,Bind B*58:01,HLA-B*58:01,30%
same,Bind A*68:01,HLA-A*68:01,0%
same,Bind A*30:02,HLA-A*30:02,45%
same,Bind A*30:01,HLA-A*30:01,1%
same,Bind A*24:02,HLA-A*24:02,0%
same,Bind C*07:01,HLA-C*07:01,1%
same,Bind A*02:01,HLA-A*02:01,57%
same,Bind B*07:02,HLA-B*07:02,1%
